According to patent US20130190407A1, “CALCIUM RECEPTOR-ACTIVE MOLECULES” (NPS Pharmaceuticals, Inc., priority 1991, published 2013):

Tests used:
[1] = biological target: T1, C-cell calcium receptor (Rattus norvegicus, UniProt P48442); assay: [Ca2+]i in rat medullary thyroid carcinoma C-cell line (44-2 cells); format: cell-based; settings: 1 mM extracellular Ca2+, read-out: EC50 for increase in [Ca2+]i
T1 construct: cultured cell lines expressing the C-cell phenotype (e.g., rat medullary thyroid carcinoma cells; rMTC 6-23 cells); host or cells: rMTC 6-23 rat medullary thyroid carcinoma cells
T1 sequence (P48442 20-1079): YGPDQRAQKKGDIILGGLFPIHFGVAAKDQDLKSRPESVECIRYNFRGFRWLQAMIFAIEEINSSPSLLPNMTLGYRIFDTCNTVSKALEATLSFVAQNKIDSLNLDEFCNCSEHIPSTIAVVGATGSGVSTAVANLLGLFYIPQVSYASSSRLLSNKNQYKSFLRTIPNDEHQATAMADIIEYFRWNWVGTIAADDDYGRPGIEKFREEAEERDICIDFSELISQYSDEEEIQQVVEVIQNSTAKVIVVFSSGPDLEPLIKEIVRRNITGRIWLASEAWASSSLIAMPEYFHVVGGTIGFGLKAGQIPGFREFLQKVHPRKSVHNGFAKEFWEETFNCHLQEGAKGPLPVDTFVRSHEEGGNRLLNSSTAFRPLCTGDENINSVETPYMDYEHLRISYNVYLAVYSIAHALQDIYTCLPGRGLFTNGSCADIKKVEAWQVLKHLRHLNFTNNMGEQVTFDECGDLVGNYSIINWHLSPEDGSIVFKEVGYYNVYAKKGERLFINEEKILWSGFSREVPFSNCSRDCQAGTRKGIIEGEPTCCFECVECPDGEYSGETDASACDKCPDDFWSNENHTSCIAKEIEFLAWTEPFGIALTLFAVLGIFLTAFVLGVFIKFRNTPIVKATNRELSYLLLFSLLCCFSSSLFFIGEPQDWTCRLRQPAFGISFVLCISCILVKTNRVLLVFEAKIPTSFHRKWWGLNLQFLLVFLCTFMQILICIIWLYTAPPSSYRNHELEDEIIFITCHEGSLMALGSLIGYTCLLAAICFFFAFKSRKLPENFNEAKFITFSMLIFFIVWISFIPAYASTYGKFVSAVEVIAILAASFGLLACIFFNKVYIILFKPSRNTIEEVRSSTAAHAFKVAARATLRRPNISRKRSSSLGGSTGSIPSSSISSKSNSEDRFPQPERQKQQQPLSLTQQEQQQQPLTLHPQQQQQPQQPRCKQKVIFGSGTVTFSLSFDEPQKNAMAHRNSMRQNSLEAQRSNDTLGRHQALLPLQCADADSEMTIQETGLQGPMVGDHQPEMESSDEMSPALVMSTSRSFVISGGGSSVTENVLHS
Text: C-cells appear to express a calcium receptor that is structurally similar to that present on parathyroid cells (see Example 31). […] Thus, compounds in this structural series appear to activate the C-cell calcium receptor.

[2] = tested on: thyroidectomized animals; assay: Hypocalcemic response in thyroidectomized rats; format: in vivo, rat; settings: 3 to 100 mg/kg p.o.
Text: In subsequent studies, rats received a thyroidectomy (parathyroid glands intact). This surgical procedure effectively removed the C-cells secreting calcitonin and therefore enabled the relative contributions of PTH and calcitonin to the hypocalcemic effect of this compound to be determined. […] The only difference was that the rate of onset of the hypocalcemic response was somewhat delayed in thyroidectomized animals. […] Stimulatory effects of this compound on calcitonin secretion increases the rate of onset, but not the extent, of hypocalcemia.

[3] = biological target: T2, parathyroid cell calcium receptor (Homo sapiens, UniProt P41180); assay: [Ca2+]i (fura-2) in human parathyroid cells; format: cell-based; settings: 20 μM
T2 construct: Dissociated parathyroid cells were prepared from a parathyroid adenoma obtained by surgery; endogenous in cells; host or cells: dissociated primary human parathyroid cells from patients with primary or uremic hyperparathyroidism
T2 sequence (P41180 20-1078): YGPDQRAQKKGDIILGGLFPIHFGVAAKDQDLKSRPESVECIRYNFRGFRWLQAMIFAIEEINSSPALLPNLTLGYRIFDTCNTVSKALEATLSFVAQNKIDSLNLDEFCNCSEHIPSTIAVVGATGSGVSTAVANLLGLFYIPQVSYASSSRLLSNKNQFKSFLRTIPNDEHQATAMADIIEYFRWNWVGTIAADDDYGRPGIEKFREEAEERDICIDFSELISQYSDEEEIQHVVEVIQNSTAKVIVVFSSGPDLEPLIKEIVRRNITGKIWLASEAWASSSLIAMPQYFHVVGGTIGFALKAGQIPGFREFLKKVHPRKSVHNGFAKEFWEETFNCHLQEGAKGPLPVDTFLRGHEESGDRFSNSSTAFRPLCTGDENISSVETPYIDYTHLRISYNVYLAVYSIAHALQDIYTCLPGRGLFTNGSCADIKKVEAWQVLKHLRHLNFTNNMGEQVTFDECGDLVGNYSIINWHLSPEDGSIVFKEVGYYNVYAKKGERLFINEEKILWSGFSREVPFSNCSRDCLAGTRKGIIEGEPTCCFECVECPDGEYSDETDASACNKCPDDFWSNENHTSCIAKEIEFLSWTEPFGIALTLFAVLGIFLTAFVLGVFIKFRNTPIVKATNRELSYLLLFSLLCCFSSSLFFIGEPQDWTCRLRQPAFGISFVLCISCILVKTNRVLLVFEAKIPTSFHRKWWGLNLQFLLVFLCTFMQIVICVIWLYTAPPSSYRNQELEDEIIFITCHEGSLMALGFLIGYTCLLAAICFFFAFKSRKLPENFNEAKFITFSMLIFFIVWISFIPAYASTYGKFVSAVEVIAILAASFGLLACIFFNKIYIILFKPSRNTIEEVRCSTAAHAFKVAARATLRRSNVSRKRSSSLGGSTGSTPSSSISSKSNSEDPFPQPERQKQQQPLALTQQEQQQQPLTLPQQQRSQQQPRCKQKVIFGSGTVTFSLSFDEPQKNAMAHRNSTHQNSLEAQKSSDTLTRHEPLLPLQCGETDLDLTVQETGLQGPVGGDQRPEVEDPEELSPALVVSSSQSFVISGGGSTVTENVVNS
Method: This section describes procedures used to obtain and treat parathyroid cells from calves and humans. […] Human parathyroid glands, were obtained from patients undergoing surgical removal of parathyroid tissue for primary or uremic hyperparathyroidism (uremic HPT), and were treated similarly to bovine tissue.
The cells were then pelleted, resuspended in the same buffer, but lacking the ester, and incubated a further 15 minutes at 37° C. The cells were subsequently washed twice with PCB containing 0.5 mM CaCl2 and 0.5% BSA and maintained at room temperature (about 20° C.) Immediately before use, the cells were diluted five-fold with prewarmed 0.5 mM CaCl2-PCB to obtain a final BSA concentration of 0.1%. The concentration of cells in the cuvette used for fluorescence recording was 1−2×10^6/ml.
The fluorescence of indicator-loaded cells was measured at 37° C. in a spectrofluorimeter (Biomedical Instrumentation Group, University of Pennsylvania, Philadelphia, Pa.) equipped with a thermostated cuvette holder and magnetic stirrer using excitation and emission wavelengths of 340 and 510 nm, respectively. […] To correct the calibration for dye leakage, cells were placed in the cuvette and stirred at 37° C. for 2-3 minutes. The cell suspension was then removed, the cells pelleted, and the supernatant returned to a clean cuvette. […] This estimate was subtracted from the apparent Fmin.

With `COc1cccc([C@@H](C)NCCCc2ccccc2Cl)c1` [NPS R-568, (R)-(+)-N-[3-(2-chlorophenyl)propyl]-α-methyl-3-methoxybenzylamine] the EC50 [1] was 2200 nM and the hypocalcemic response [2] was “hypocalcemic response equal in magnitude to that produced in sham-operated animals”.

`COc1cccc([C@@H](C)NCCCc2ccccc2)c1` (single isomer, unassigned) [NPS R-467] showed an EC50 [1] of 1900 nM.

For `NC[C@@H]1O[C@H](O[C@H]2[C@@H](O)[C@H](O[C@@H]3[C@@H](O)[C@H](N)C[C@H](N)[C@H]3O[C@H]3O[C@H](CN)[C@@H](O)[C@H](O)[C@H]3N)O[C@@H]2CO)[C@H](N)[C@@H](O)[C@@H]1O` [Neomycin B, neomycin B], the “increase in [Ca2+]i” value [3] was “large increase”.
